Results from US20250213563A1, “SUBSTITUTED PYRIMIDIN-4(3H)-ONES FOR USE IN TREATING CANCER” (NAVIRE PHARMA, INC., priority 2021, published 2025).
Like-named read-outs stand apart in the source and are kept apart here.

How the values were obtained:
[1] = test system: panel of 14 full-length human phosphatases; experiment: Eurofins Panlabs spectrofluorimetric phosphatase panel; type: biochemical; conditions: 10 μM
Method: The activity of Compound (10b) was also assessed against a panel of 14 full-length human phosphatases using spectrofluorimetric biochemical assays. These assays were conducted using the Eurofins Panlabs platform.

hERG potassium channel = hERG potassium channel (Homo sapiens, UniProt Q12809); experiment: hERG manual whole cell patch clamp in CHO cells
Sequence of hERG potassium channel (Q12809 whole entry): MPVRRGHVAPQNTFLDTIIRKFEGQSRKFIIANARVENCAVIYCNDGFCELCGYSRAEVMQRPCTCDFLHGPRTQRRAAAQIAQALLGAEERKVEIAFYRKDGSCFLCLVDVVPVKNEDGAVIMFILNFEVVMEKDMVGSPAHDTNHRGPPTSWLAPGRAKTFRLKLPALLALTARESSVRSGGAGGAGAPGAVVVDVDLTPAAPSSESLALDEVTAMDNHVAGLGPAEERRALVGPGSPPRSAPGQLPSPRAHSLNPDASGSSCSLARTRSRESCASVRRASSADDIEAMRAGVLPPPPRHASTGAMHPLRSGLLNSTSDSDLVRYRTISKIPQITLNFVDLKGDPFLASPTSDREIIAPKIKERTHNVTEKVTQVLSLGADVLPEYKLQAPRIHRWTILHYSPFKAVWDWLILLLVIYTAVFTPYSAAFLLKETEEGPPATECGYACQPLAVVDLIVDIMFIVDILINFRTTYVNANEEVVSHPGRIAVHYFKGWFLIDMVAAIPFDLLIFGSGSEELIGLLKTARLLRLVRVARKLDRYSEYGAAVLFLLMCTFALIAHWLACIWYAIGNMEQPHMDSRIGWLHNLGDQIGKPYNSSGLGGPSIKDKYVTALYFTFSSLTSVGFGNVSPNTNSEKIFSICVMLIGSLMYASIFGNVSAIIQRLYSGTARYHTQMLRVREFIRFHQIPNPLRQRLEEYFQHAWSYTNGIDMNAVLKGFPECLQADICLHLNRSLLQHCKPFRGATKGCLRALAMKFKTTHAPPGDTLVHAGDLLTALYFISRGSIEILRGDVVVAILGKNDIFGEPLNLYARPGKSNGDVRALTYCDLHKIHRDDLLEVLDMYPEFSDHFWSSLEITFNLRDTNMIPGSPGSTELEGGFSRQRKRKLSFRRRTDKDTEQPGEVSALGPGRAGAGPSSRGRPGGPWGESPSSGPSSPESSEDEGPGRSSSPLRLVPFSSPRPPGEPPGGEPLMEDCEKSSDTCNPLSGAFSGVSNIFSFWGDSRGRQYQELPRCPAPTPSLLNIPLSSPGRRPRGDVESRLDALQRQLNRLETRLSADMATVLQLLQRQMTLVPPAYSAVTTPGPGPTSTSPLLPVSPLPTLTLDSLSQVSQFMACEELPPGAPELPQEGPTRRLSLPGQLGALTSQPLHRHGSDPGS
Method: HERG channel currents were recorded from single cells using standard whole cell recording techniques. The cells were voltage clamped at a holding potential of −80 mV. The hERG current was activated by depolarizing at +20 mV for 5 sec, after which the current was taken back to −50 mV for 5 sec to remove the inactivation and observe the deactivating tail current. The K+ tail current through HERG channels observed during this step was allowed to stabilize under continuous bath perfusion. […] Steady state was considered reached when three consecutive super-imposable current records were collected.

KYSE-520 = experiment: pERK protein levels (HTRF); type: cell-based; conditions: Homo sapiens; KYSE-520, EGFR^amp
Method: (§1) The potency of Compound (10b) in a panel of human tumor cell lines with active MAPK signaling was assessed. Cell viability in a 3D culture system was assessed by measuring CellTiter-Glo (CTG) luminescence following 8 days of treatment with nine concentrations of Compound (10b). MAPK pathway signaling was assessed by measuring pERK protein levels and DUSP6 mRNA levels by homogeneous time resolved fluorescence (HTRF) and quantitative polymerase chain reaction (qPCR), respectively. […] These viability effects correlated with pERK inhibition (Table 2, FIG. 6B) and DUSP6 inhibition (FIG. 6C).

NCI-H358 = experiment: pERK protein levels (HTRF); type: cell-based; conditions: Homo sapiens; NCI-H358, KRAS^G12C
Method: as §1

NCI-H1975 = experiment: pERK protein levels (HTRF); type: cell-based; conditions: Homo sapiens; NCI-H1975, EGFR^L858R/T790M
Method: as §1

NCI-H1299 = experiment: pERK protein levels (HTRF); type: cell-based; conditions: Homo sapiens; NCI-H1299, NRAS^Q61K
Method: as §1

[2] = test system: HCC827 cell line-derived xenograft (CDX) model; experiment: Monotherapy anti-tumor activity, HCC827 CDX model; type: in vivo; conditions: for tumor growth inhibition (TGI): day 1 to day 28
Method: An in vivo efficacy study was conducted to evaluate the monotherapy anti-tumor activity of Compound (10b) in female BALB/c nude mice bearing the non-small cell lung cancer (NSCLC) HCC827 cell line-derived xenograft (CDX) model, which harbors an EGFR exon 19 deletion (EGFR^ex19del) and EGFR amplification (EGFRamp). Mice (n=10 per group) were dosed daily orally with the indicated levels of Compound (10b) from day 1 to day 28, and a dose dependent reduction in tumor volume was observed. […] All groups dosed QD, PO Two-way mixed-effects ANOVA: *p<0.0001 vs vehicle.
In vivo efficacy studies were conducted to evaluate the monotherapy anti-tumor activity of Compound (10b) across a panel of cell line-derived xenograft (CDX) models. […] Significant anti-tumor efficacy was also observed in two CDX models with acquired resistance to EGFR inhibitors.

[3] = Phase 1/1B first-in-human study, safety and PK (Cohorts 1-5); type: in vivo; parameters: Cmax/D / AUC/D: unit not given beside the values; conditions: for AUC/D: calculated using AUClast; for AUC(0-t) / Cmax / Tmax / half-life: human, plasma
Description: The initial results were from Cohorts 1-5 of the Phase 1/1B First-in-Human Study of Example 6.
No safety findings impacting the risk or benefit of compound (10b) reported in the 19 patients dosed. Nine (9) treatment-emergent serious adverse events (SAEs) were reported in 7 patients, none of which were deemed related to the treatment with compound (10b).

[4] = Single oral dose exposure in NOD/SCID mice; type: in vivo; conditions: male, mouse; for Kp at 24 h: brain; for AUC(0-inf) / Cmax: plasma
Method: Male NOD/SCID mice (n=3 per group) were administered a single dose of Compound (10b) at 1, 3, 10, 30, and 100 mg/kg by oral gavage. Plasma was collected at 0.25, 1, 2, 4, 8, and 24 hours after each dose, and brains were collected at 24 hours after each dose. Compound (10b) concentrations were determined with LC-MS/MS.

[5] = 250 mg QD, C1D1, N=2 (1 subject excluded)
[6] = oral, 80 mg, 80 mg QD, C1D1, N=1
[7] = oral, 80 mg, 80 mg QD, C2D1, N=1
[8] = oral, 150 mg, 150 mg QD, C1D1, N=3
[9] = oral, 150 mg, 150 mg QD, C2D1, N=3
[10] = oral, 250 mg, 250 mg QD, C1D1, N=2 (1 subject excluded)
[11] = oral, 250 mg, 250 mg QD, C2D1, N=1
[12] = oral, 400 mg, 400 mg QD, C1D1, N=5
[13] = oral, 400 mg, 400 mg QD, C2D1, N=3
[14] = oral, 550 mg, 550 mg QD, C1D1, N=6

Cc1c(N2CCC3(CC2)CO[C@@H](C)[C@H]3N)nc(C)n(-c2cccc(Cl)c2Cl)c1=O (atropisomer, axis not shown; (Ra)) [Compound (10b), 6-((3S,4S)-4-amino-3-methyl-2-oxa-8-azaspiro[4.5]decan-8-yl)-3-(Ra)-(2,3-dichlorophenyl)-2,5-dimethylpyrimidin-4(3H)-one]
inhibition of phosphatases [1]: No significant inhibition
IC50 (hERG potassium channel): > 100000 nM
inhibition of hERG activity relative to vehicle control (hERG potassium channel; 100 μM): 25.7%
effect on hERG channel activity (hERG potassium channel; 0.3 to 30 μM): no effect
IC50 (KYSE-520): 73 nM
IC50 (NCI-H358): 480 nM
IC50 (NCI-H1975): 400 nM
IC50 (NCI-H1299): > 25000 nM
tumor growth inhibition (TGI) ([2]; 3 mg/kg QD PO): 41%
tumor growth inhibition (TGI) ([2]; 10 mg/kg QD PO): 84%
tumor growth inhibition (TGI) ([2]; 30 mg/kg QD PO): 98%
mean tumor regression ([2]; 100 mg/kg QD PO): 60%
impact of treatment on body weight ([2]; 3-100 mg/kg QD PO): no impact
tolerability ([2]; 3-100 mg/kg QD PO): well tolerated
ED90 ([2]; QD PO): 10 mg/kg
Cmax/D ([3]; 80 mg QD, C1D1, N=1): 5.06
AUC/D ([3]; 80 mg QD, C1D1, N=1): 61.1
P/T Ratio ([3]; 80 mg QD, C2D1, N=1): 6.82
Cmax/D ([3]; 150 mg QD, C1D1, N=3): 4.34
AUC/D ([3]; 150 mg QD, C1D1, N=3): 64.3
P/T Ratio ([3]; 150 mg QD, C2D1, N=3): 3.19
Cmax/D [3, 5]: 3.19
AUC/D [3, 5]: 42.4
P/T Ratio ([3]; 250 mg QD, C2D1, N=1): 2.81
Cmax/D ([3]; 400 mg QD, C1D1, N=5): 3.85
AUC/D ([3]; 400 mg QD, C1D1, N=5): 47.0
P/T Ratio ([3]; 400 mg QD, C2D1, N=3): 3.42
Cmax/D ([3]; 550 mg QD, C1D1, N=6): 4.63
AUC/D ([3]; 550 mg QD, C1D1, N=6): 68.6
Number of patients (n = 19) with TEAE: Constipation ([3]; Cohorts 1-5): 1
Number of patients (n = 19) with TEAE: Diarrhea ([3]; Cohorts 1-5): 5
Number of patients (n = 19) with TEAE: Edema ([3]; Cohorts 1-5): 4
Number of patients (n = 19) with TEAE: LFT increases ([3]; Cohorts 1-5): 2
Number of patients (n = 19) with TEAE: LVEF decrease ([3]; Cohorts 1-5): 1
Number of patients (n = 19) with TEAE: Nausea/vomiting ([3]; Cohorts 1-5): 4
Number of patients (n = 19) with TEAE: Rash ([3]; Cohorts 1-5): 2
adverse events leading to study discontinuation ([3]; Cohorts 1-5): No adverse events (AEs) led to study discontinuation
dose-limiting toxicity (DLTs) ([3]; Cohorts 1-5): no dose-limiting toxicity and None
number of patients with treatment-emergent SAEs ([3]; Cohorts 1-5, 19 patients dosed): 7
number of treatment-emergent serious adverse events (SAEs) ([3]; Cohorts 1-5, 19 patients dosed): 9
treatment-emergent SAEs deemed related to the treatment ([3]; Cohorts 1-5, 19 patients dosed): none
tolerability ([3]; Cohorts 1-5: 80, 150, 250, 400, 550 mg once daily, 19 patients): well tolerated
AUC(0-t) [3, 6]: 4890 ng·h/mL
Cmax [3, 6]: 405 ng/mL
Tmax [3, 6]: 2 h
AUC(0-t) [3, 7]: 6290 ng·h/mL
Cmax [3, 7]: 622 ng/mL
Tmax [3, 7]: 1 h
half-life ([3]; oral, 80 mg, 80 mg QD, C2D1, N=1, read-out: t1/2 (converted)): 10 h
AUC(0-t) [3, 8]: 9650 ng·h/mL
Cmax [3, 8]: 651 ng/mL
Tmax [3, 8]: 2 h
half-life ([3]; oral, 150 mg, 150 mg QD, C2D1, N = 1, read-out: t1/2 (converted)): 10.1 h
AUC(0-t) [3, 9]: 18200 ng·h/mL
Cmax [3, 9]: 1120 ng/mL
Tmax [3, 9]: 3.33 h
half-life ([3]; oral, 250 mg, 250 mg QD, C1D1, N = 1, read-out: t1/2 (converted)): 9.44 h
AUC(0-t) [3, 10]: 10600 ng·h/mL
Tmax [3, 10]: 3 h
Cmax ([3]; oral, 250 mg, 250 mg QD, C1D1, N=2 (1 subject with active gastritis excluded)): 797 ng/mL
AUC(0-t) [3, 11]: 21600 ng·h/mL
Cmax [3, 11]: 1380 ng/mL
Tmax [3, 11]: 2 h
half-life ([3]; oral, 400 mg, 400 mg QD, C1D1, N = 1, read-out: t1/2 (converted)): 10.1 h
AUC(0-t) [3, 12]: 18800 ng·h/mL
Cmax [3, 12]: 1540 ng/mL
Tmax [3, 12]: 3 h
half-life ([3]; oral, 400 mg, 400 mg QD, C2D1, N = 1, in parentheses: interpret with caution (large extrapolated AUC), read-out: t1/2 (converted)): 12.3 h
AUC(0-t) [3, 13]: 32000 ng·h/mL
Cmax [3, 13]: 2270 ng/mL
Tmax [3, 13]: 3 h
AUC(0-t) [3, 14]: 37700 ng·h/mL
Cmax [3, 14]: 2550 ng/mL
Tmax [3, 14]: 2.67 h
half-life ([3]; oral, read-out: Human Half life): 10 to 16 h
half-life ([3]; po, 80 mg, 80 mg QD, C1D1, N=1, in parentheses: interpret with caution (large extrapolated AUC), read-out: t1/2 (converted)): 14.9 h
half-life ([3]; po, 150 mg, 150 mg QD, C1D1, N=3, in parentheses: interpret with caution (large extrapolated AUC), read-out: t1/2 (converted)): 15.6 h
half-life ([3]; po, 550 mg, 550 mg QD, C1D1, N=6, in parentheses: interpret with caution (large extrapolated AUC), read-out: t1/2 (converted)): 13.5 h
Kp at 24 h ([4]; oral, mean over doses 1-100 mg/kg, read-out: mean total brain/plasma level at 24 hours): 0.33
Kp at 24 h ([4]; single oral dose 1 mg/kg, read-out: total brain/plasma levels at 24 hours): 0.35
Kp at 24 h ([4]; single oral dose 3 mg/kg, read-out: total brain/plasma levels at 24 hours): 0.31
Kp at 24 h ([4]; single oral dose 10 mg/kg, read-out: total brain/plasma levels at 24 hours): 0.3
Kp at 24 h ([4]; single oral dose 30 mg/kg, read-out: total brain/plasma levels at 24 hours): 0.31
Kp at 24 h ([4]; single oral dose 100 mg/kg, read-out: total brain/plasma levels at 24 hours): 0.37
AUC(0-inf) ([4]; single oral dose 1 mg/kg): 1030 ng·h/mL
Cmax ([4]; single oral dose 1 mg/kg): 160 ng/mL
AUC(0-inf) ([4]; single oral dose 3 mg/kg): 3530 ng·h/mL
Cmax ([4]; single oral dose 3 mg/kg): 507 ng/mL
AUC(0-inf) ([4]; single oral dose 10 mg/kg): 13000 ng·h/mL
Cmax ([4]; single oral dose 10 mg/kg): 2030 ng/mL
AUC(0-inf) ([4]; single oral dose 30 mg/kg): 30600 ng·h/mL
Cmax ([4]; single oral dose 30 mg/kg): 4870 ng/mL
AUC(0-inf) ([4]; single oral dose 100 mg/kg): 123000 ng·h/mL
Cmax ([4]; single oral dose 100 mg/kg): 13900 ng/mL
